Data as given in ChEMBL document CHEMBL1201862, “PubChem BioAssay data set” (2004).
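Briefly, cells in 96-well plates were exposed to five compound concentrations for 48 h, and endpoints were estimated by linear interpolation. The concentration for 50% growth inhibition is given as GI50.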 The source made the active and inactive calls. Cut-off read from the data, not from the text of the source: active = GI50 up to about 1.1 µM and inactive = higher.

What was measured:
Test in all cases: NCI tumour cell line growth inhibition, 48 h
NCI-H522 = tested on: NCI-H522
COLO 205 = tested on: COLO 205
A549 = tested on: A549
NCI/ADR-RES = tested on: NCI/ADR-RES
SNB-19 = tested on: SNB-19
786-0 = tested on: 786-0
MDA-MB-435 = tested on: MDA-MB-435
HCC 2998 = tested on: HCC 2998
SK-MEL-5 = tested on: SK-MEL-5
M14 = tested on: M14
SK-MEL-28 = tested on: SK-MEL-28
Hs-578T = tested on: Hs-578T
OVCAR-5 = tested on: OVCAR-5
Malme-3M = tested on: Malme-3M
UACC-257 = tested on: UACC-257
OVCAR-8 = tested on: OVCAR-8
MDA-MB-231 = tested on: MDA-MB-231
A498 = tested on: A498
PC-3 = tested on: PC-3
SN12C = tested on: SN12C
MOLT-4 = tested on: MOLT-4
SF-539 = tested on: SF-539
TK-10 = tested on: TK-10
OVCAR-3 = tested on: OVCAR-3
HCT-116 = tested on: HCT-116
IGROV-1 = tested on: IGROV-1
ACHN = tested on: ACHN
EKVX = tested on: EKVX
NCI-H226 = tested on: NCI-H226
CCRF-CEM = tested on: CCRF-CEM
OVCAR-4 = tested on: OVCAR-4
RPMI-8226 = tested on: RPMI-8226
MCF7 = tested on: MCF7
HCT-15 = tested on: HCT-15
DU-145 = tested on: DU-145
CAKI-1 = tested on: CAKI-1
SF-268 = tested on: SF-268
SW-620 = tested on: SW-620
SK-OV-3 = tested on: SK-OV-3
SK-MEL-2 = tested on: SK-MEL-2
HOP-92 = tested on: HOP-92
SNB-75 = tested on: SNB-75
UO-31 = tested on: UO-31
K562 = tested on: K562
HOP-62 = tested on: HOP-62
NCI-H460 = tested on: NCI-H460
SF-295 = tested on: SF-295
HT-29 = tested on: HT-29
NCI-H23 = tested on: NCI-H23
KM12 = tested on: KM12
U-251 = tested on: U-251
MDA-N = tested on: MDA-N
RXF 393 = tested on: RXF 393
BT-549 = tested on: BT-549
T47D = tested on: T47D
HL-60 = tested on: HL-60
UACC-62 = tested on: UACC-62
LOX IMVI = tested on: LOX IMVI

In the case of `C=CC(O)(CBr)CCC(Br)C(C)(C)Cl` (configuration not stated), the GI50 (NCI-H522) is reported as > 10 µM (inactive), the GI50 (COLO 205) is reported as > 10 µM (inactive) and the GI50 (A549) is reported as > 10 µM (inactive). For the same molecule, the GI50 (NCI/ADR-RES) was > 10 µM (inactive), the GI50 (SNB-19) was > 10 µM (inactive) and the GI50 (786-0) was > 10 µM (inactive). The GI50 (MDA-MB-435) was > 10 µM (inactive), the GI50 (HCC 2998) was > 10 µM (inactive) and the GI50 (SK-MEL-5) was > 10 µM (inactive). The GI50 (M14) was > 10 µM (inactive), the GI50 (SK-MEL-28) was > 10 µM (inactive) and the GI50 (Hs-578T) was > 10 µM (inactive). For the same molecule, the GI50 (OVCAR-5) was > 10 µM (inactive), the GI50 (Malme-3M) was > 10 µM (inactive) and the GI50 (UACC-257) was > 10 µM (inactive). The GI50 (OVCAR-8) was > 10 µM (inactive), the GI50 (MDA-MB-231) was > 10 µM (inactive) and the GI50 (A498) was > 10 µM (inactive). The GI50 (PC-3) was > 10 µM (inactive), the GI50 (SN12C) was > 10 µM (inactive) and the GI50 (MOLT-4) was > 10 µM (inactive). The GI50 (SF-539) was > 10 µM (inactive), the GI50 (TK-10) was > 10 µM (inactive) and the GI50 (OVCAR-3) was > 10 µM (inactive). For the same molecule, the GI50 (HCT-116) was > 10 µM (inactive), the GI50 (IGROV-1) was > 10 µM (inactive) and the GI50 (ACHN) was > 10 µM (inactive). The GI50 (EKVX) was > 10 µM (inactive), the GI50 (NCI-H226) was > 10 µM (inactive) and the GI50 (CCRF-CEM) was > 10 µM (inactive). The GI50 (OVCAR-4) was > 10 µM (inactive), the GI50 (RPMI-8226) was > 10 µM (inactive) and the GI50 (MCF7) was > 10 µM (inactive). The GI50 (HCT-15) was greater than 10 µM, the GI50 (DU-145) was > 10 µM (inactive) and the GI50 (CAKI-1) was > 10 µM (inactive). The GI50 (SF-268) was > 10 µM (inactive), the GI50 (SW-620) was > 10 µM (inactive) and the GI50 (SK-OV-3) was > 10 µM (inactive). For the same molecule, the GI50 (SK-MEL-2) was > 10 µM (inactive), the GI50 (HOP-92) was > 10 µM (inactive) and the GI50 (SNB-75) was > 10 µM (inactive). For the same molecule, the GI50 (UO-31) was > 10 µM (inactive), the GI50 (K562) was > 10 µM (inactive) and the GI50 (HOP-62) was > 10 µM (inactive). The GI50 (NCI-H460) was > 10 µM (inactive), the GI50 (SF-295) was > 10 µM (inactive) and the GI50 (HT-29) was > 10 µM (inactive). The GI50 (NCI-H23) was > 10 µM (inactive), the GI50 (KM12) was > 10 µM (inactive) and the GI50 (U-251) was > 10 µM (inactive). The GI50 (MDA-N) was > 10 µM (inactive), the GI50 (RXF 393) was > 10 µM (inactive) and the GI50 (BT-549) was > 10 µM (inactive). The GI50 (T47D) was > 10 µM (inactive).

`CC(C)(C)OC(=O)N1[C@@H]2Cc3ccc(N)cc3[C@@]1(C)c1ccccc12` was tested, and the GI50 (HL-60) was 20.1 µM (inactive), the GI50 (NCI-H522) was 12.2 µM (inactive) and the GI50 (A549) was 35.6 µM (inactive). The GI50 (NCI/ADR-RES) was 22.4 µM (inactive), the GI50 (SNB-19) was 44.1 µM (inactive) and the GI50 (786-0) was 19.1 µM (inactive). The GI50 (UACC-62) was 20.6 µM (inactive), the GI50 (MDA-MB-435) was 16.8 µM (inactive) and the GI50 (HCC 2998) was 21.3 µM (inactive). For the same molecule, the GI50 (SK-MEL-5) was 0.9 µM (active), the GI50 (M14) was 24 µM (inactive) and the GI50 (Hs-578T) was 36.6 µM (inactive). For the same molecule, the GI50 (OVCAR-5) was 42.1 µM (inactive), the GI50 (Malme-3M) was 29.9 µM (inactive) and the GI50 (UACC-257) was 27.2 µM (inactive). The GI50 (MDA-MB-231) was 27.7 µM (inactive), the GI50 (A498) was 30.5 µM (inactive) and the GI50 (PC-3) was 29.9 µM (inactive). The GI50 (SN12C) was 16.8 µM (inactive), the GI50 (MOLT-4) was 19 µM (inactive) and the GI50 (TK-10) was 35.5 µM (inactive). For the same molecule, the GI50 (OVCAR-3) was 20.8 µM (inactive), the GI50 (HCT-116) was 18.7 µM (inactive) and the GI50 (IGROV-1) was 46.7 µM (inactive). For the same molecule, the GI50 (ACHN) was 36.8 µM (inactive), the GI50 (EKVX) was 38.3 µM (inactive) and the GI50 (CCRF-CEM) was 25.8 µM (inactive). For the same molecule, the GI50 (OVCAR-4) was 29.8 µM (inactive), the GI50 (LOX IMVI) was 19.6 µM (inactive) and the GI50 (RPMI-8226) was 21.8 µM (inactive). For the same molecule, the GI50 (MCF7) was 34.1 µM (inactive), the GI50 (HCT-15) was 11.1 µM and the GI50 (DU-145) was 30.3 µM (inactive). The GI50 (CAKI-1) was 45.2 µM (inactive), the GI50 (SF-268) was 37.3 µM (inactive) and the GI50 (SW-620) was 29.7 µM (inactive). For the same molecule, the GI50 (SK-OV-3) was 34 µM (inactive), the GI50 (SK-MEL-2) was 20 µM (inactive) and the GI50 (HOP-92) was 23.9 µM (inactive). The GI50 (UO-31) was 40.6 µM (inactive), the GI50 (K562) was 24.8 µM (inactive) and the GI50 (HOP-62) was 35 µM (inactive). For the same molecule, the GI50 (NCI-H460) was 21.2 µM (inactive), the GI50 (SF-295) was 28.1 µM (inactive) and the GI50 (HT-29) was 21.6 µM (inactive). The GI50 (NCI-H23) was 19.3 µM (inactive), the GI50 (KM12) was 33 µM (inactive) and the GI50 (U-251) was 17 µM (inactive). For the same molecule, the GI50 (MDA-N) was 21.2 µM (inactive), the GI50 (RXF 393) was 15 µM (inactive) and the GI50 (BT-549) was 18.7 µM (inactive). The GI50 (T47D) was 17.7 µM (inactive).
